The assay concerns the target T1, mAChR M1 (UniProt P11229).
T1 sequence (P11229 1-460): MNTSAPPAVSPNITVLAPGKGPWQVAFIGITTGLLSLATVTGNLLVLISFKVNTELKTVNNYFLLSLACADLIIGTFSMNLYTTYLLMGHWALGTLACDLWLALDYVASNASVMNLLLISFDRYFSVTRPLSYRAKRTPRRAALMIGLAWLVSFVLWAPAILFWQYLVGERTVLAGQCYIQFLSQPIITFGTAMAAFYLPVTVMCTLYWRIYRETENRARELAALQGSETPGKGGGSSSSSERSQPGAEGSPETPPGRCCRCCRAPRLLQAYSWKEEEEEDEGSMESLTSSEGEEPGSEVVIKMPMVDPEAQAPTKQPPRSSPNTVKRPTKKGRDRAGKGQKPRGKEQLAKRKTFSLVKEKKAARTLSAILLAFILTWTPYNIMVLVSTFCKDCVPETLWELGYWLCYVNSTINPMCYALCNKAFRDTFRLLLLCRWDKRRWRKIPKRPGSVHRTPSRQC
Briefly: mAChR M1 cell-based functional assay (calcium mobilization, potentiation of EC20 acetylcholine response). The settings on record: for Emax (%): % ACh maximum at 30 μM, mAChR M1-expressing CHO-K1 cells, calcium flux; for pEC50 / EC50: positive allosteric modulation of EC20 ACh response, mAChR M1 CHO-K1 cells; for pEC50: <5 estimated where no plateau; for EC50: >10 μM estimated where no plateau, read-out: EC50.

Structures are written as SMILES.

Turning to `Cn1cc(-c2ccc(CN3Cc4cccnc4C3=O)c(F)c2)cn1` [Example B25], the “Emax (%)” value is recorded as 66%; the pEC50 (in general, the negative decadic logarithm of the EC50, by convention in mol/L) was less than 5.00; the EC50 (usually the concentration that produces a half-maximal response) is more than 10000 nM.

As to `Cc1cc(-c2ccc(CN3Cc4cccnc4C3=O)c(F)c2)cnc1Cl` [Example B63], the “Emax (%)” value is reported as 48%, the pEC50 is 5.73 and the half-maximal effective concentration (EC50) is 1860 nM.

In the case of `COc1cc(-c2cccc3nn(C)cc23)ccc1CN1Cc2ncccc2C1=O` [Example B104], the “Emax (%)” value was 70%, the pEC50 is 5.82 and the EC50 is 1510 nM.

For `O=C1c2ncccc2CN1Cc1ccc(-c2ccc3cnccc3c2)cc1Cl` [Example B69], the “Emax (%)” value is 52%, the pEC50 was 5.87 and the EC50 was 1350 nM.

Turning to `COc1ncccc1-c1ccc(CN2Cc3ncccc3C2=O)c(F)c1` [Example B33], the “Emax (%)” value is given as 31%, the pEC50 is less than 5.00 and the EC50 was more than 10000 nM.

Turning to `Cn1cc2cc(-c3cccc(CN4Cc5ncccc5C4=O)c3F)ccc2n1` [Example B106], the “Emax (%)” value was found to be 41%, the pEC50 is recorded as 5.42 and the EC50 was 3800 nM.

In the case of `Cn1ncc2cc(-c3ccc(CN4Cc5ccccc5C4=O)c(F)c3)ccc21` [Example B114], the “Emax (%)” value is less than 30%, the pEC50 was less than 5.00 and the EC50 is more than 10000 nM.

With `O=C1c2cccnc2CN1Cc1c(F)cc(-c2ccc3cncn3c2)cc1F` [Example B100], the “Emax (%)” value is reported as 71%, the pEC50 is given as 5.88 and the EC50 is 1320 nM.

On to `Cc1n[nH]c2cc(-c3cc(F)c(CN4Cc5ncccc5C4=O)c(F)c3)ccc12` [Example B98], for which the “Emax (%)” value is reported as 49%, the pEC50 was 6.68 and the EC50 is 209 nM.

In the case of `Cc1nc(-c2ccc(CN3Cc4ccccc4S3(=O)=O)cc2)cs1` [Example B116], the “Emax (%)” value is less than 30%, the pEC50 was less than 5.00 and the EC50 is more than 10000 nM.

Take `Cc1cc(-c2ccc(CN3Cc4cccnc4C3=O)c(Cl)c2)cnc1Cl` [Example B75]: the “Emax (%)” value was 42%, the pEC50 is 5.70 and the EC50 is 2000 nM.

On to `O=C1Cc2cc(-c3cc(F)c(CN4Cc5ncccc5C4=O)c(F)c3)ccc2N1` [Example B91], for which the “Emax (%)” value was 67%, the pEC50 is on record as 6.51 and the EC50 was 309 nM.

As for `O=C1c2cccnc2CN1Cc1ccc(-c2cnc3ccccn23)cc1F` [Example B93], the “Emax (%)” value is on record as 65%, the pEC50 is 5.53 and the EC50 is 2950 nM.

For `O=C1c2ncccc2CN1Cc1ccc(-c2cnc3ccccc3c2)cc1F` [Example B66], the “Emax (%)” value turned out to be 52%, the pEC50 is 5.84 and the EC50 is 1440 nM.

As for `O=S1(=O)c2ccccc2CN1Cc1ccc(Oc2ccccc2)cc1` [Example B124], the “Emax (%)” value is less than 30%, the pEC50 was less than 5.00 and the EC50 is more than 10000 nM.

As to `Cn1ncc2c(-c3ccc(CN4Cc5ncccc5C4=O)c(F)c3)cccc21` [Example B29], the “Emax (%)” value was determined as 58%, the pEC50 is listed as 5.80 and the EC50 is 1590 nM.

For the compound `Cn1cc2cc(-c3ccc(CN4Cc5ncccc5C4=O)c(F)c3)ccc2n1` [Example B1], the “Emax (%)” value was 82%, the pEC50 was 5.96 and the 50% effective concentration (EC50) is 1100 nM.

On to `Cc1cc(-c2ccncc2)ccc1CN1Cc2cccnc2C1=O` [Example B84], for which the “Emax (%)” value is given as 41%, the pEC50 is less than 5.00 and the EC50 was more than 10000 nM.

As for `Cn1cc2ccc(-c3ccc(CN4Cc5ncccc5C4=O)c(F)c3)cc2n1` [Example B35], the “Emax (%)” value is given as 80%, the pEC50 is 5.71 and the EC50 is 1950 nM.

In the case of `O=C1c2cccnc2CN1Cc1ccc(-c2cccc3ncccc23)cc1F` [Example B42], the “Emax (%)” value worked out at 41%, the negative-log EC50 (pEC50) is 5.44 and the EC50 is 3630 nM.

`O=C1c2cccnc2CN1Cc1c(F)cc(-c2cccc3cnccc23)cc1F` [Example B99]: the “Emax (%)” value is reported as 41%, the pEC50 was less than 5.00 and the EC50 was more than 10000 nM.

In the case of `Cn1cc2c(-c3cc(F)c(CN4Cc5ncccc5C4=O)cc3F)cccc2n1` [Example B87], the “Emax (%)” value turned out to be 68%, the pEC50 is 5.22 and the 50% effective concentration (EC50) was 6030 nM.

As to `Cn1cc(-c2ccc(CN3Cc4ccccc4S3(=O)=O)c(F)c2)cn1` [Example B23], the “Emax (%)” value was 63%, the pEC50 is recorded as less than 5.00 and the EC50 is more than 10000 nM.

As to `O=C1c2ccccc2CN1Cc1ccc(-c2c[nH]nc2C(F)(F)F)cc1F` [Example B16], the “Emax (%)” value came out at 38%, the pEC50 is recorded as less than 5.00 and the EC50 is more than 10000 nM.

As to `CN1CC=C(c2ccc(CN3Cc4ncccc4C3=O)c(F)c2)CC1` [Example B53], the “Emax (%)” value is given as 80%, the pEC50 is listed as 5.51 and the EC50 was 3090 nM.

For the compound `Cn1cc(-c2ccc(CN3Cc4ccccc4C3=O)c(C(F)(F)F)c2)cn1` [Example B12], the “Emax (%)” value is on record as 36%, the pEC50 is given as 5.42 and the concentration giving a half-maximal response (EC50) was 3800 nM.

Values taken from US10654847B2, “Substituted 2-(4-heterocyclylbenzyl)isoindolin-1-one analogs as positive allosteric modulators of the muscarinic acetylcholine receptor M1” (Vanderbilt University, priority 2011, dated 2020).
